Reference: the NIST ThermoML archive (doi:10.1016/j.jct.2012.04.020)
Several values for one entry are separate records, joined by “and”; a condition that tells them apart may be missing. Equal entries are not always repeated. ± gives the expanded uncertainty stated by the source.

Assay: mn = molality of the nth substance listed, in mol/kg
Conditions: 101 kPa, Liquid; for speed of sound: Sing-around technique in a fixed-path interferometer; for mass density: Vibrating tube method

O=P([O-])([O-])O.[K+].[K+] [dipotassium hydrogen phosphate] + O
Conditions | mass density, 288.15 K | mass density, 298.15 K | mass density, 308.15 K | mass density, 318.15 K | speed of sound, 288.15 K | speed of sound, 298.15 K | speed of sound, 308.15 K | speed of sound, 318.15 K
m1 = 0.2 | 1031.93 ± 0.15 kg/m3 and 1029.08 ± 0.14 kg/m3 | 1029.32 ± 0.14 kg/m3 and 1026.51 ± 0.14 kg/m3 | 1025.9 ± 0.14 kg/m3 and 1023.13 ± 0.14 kg/m3 | 1021.79 ± 0.14 kg/m3 and 1018.99 ± 0.14 kg/m3 | 1502.7 ± 1 m/s and 1500 ± 1 m/s | 1530.6 ± 1 m/s and 1528.2 ± 1 m/s | 1551.8 ± 1 m/s and 1549.3 ± 1 m/s | 1566.8 ± 1 m/s and 1564.2 ± 1 m/s
m1 = 0.4 | 1057.5 ± 0.16 kg/m3 and 1061.39 ± 0.16 kg/m3 | 1054.52 ± 0.16 kg/m3 and 1058.35 ± 0.16 kg/m3 | 1054.54 ± 0.16 kg/m3 and 1050.82 ± 0.16 kg/m3 | 1050.25 ± 0.16 kg/m3 and 1046.5 ± 0.15 kg/m3 | 1531 ± 1 m/s and 1535 ± 1 m/s | 1557 ± 1 m/s and 1560.8 ± 1 m/s | 1580.1 ± 1 m/s and 1576.5 ± 1 m/s | 1593.7 ± 1 m/s and 1590.2 ± 1 m/s
m1 = 0.6 | 1084.12 ± 0.18 kg/m3 and 1093.21 ± 0.18 kg/m3 | 1080.78 ± 0.18 kg/m3 and 1089.76 ± 0.18 kg/m3 | 1076.82 ± 0.17 kg/m3 and 1085.71 ± 0.18 kg/m3 | 1072.29 ± 0.17 kg/m3 and 1081.11 ± 0.18 kg/m3 | 1560.3 ± 1 m/s and 1570.8 ± 1 m/s | 1584.4 ± 1 m/s and 1594.5 ± 1.1 m/s | 1602.3 ± 1.1 m/s and 1611.8 ± 1.1 m/s | 1614.7 ± 1.1 m/s and 1623.6 ± 1.1 m/s
m1 = 0.8 | 1113.94 ± 0.2 kg/m3 and 1116.48 ± 0.2 kg/m3 | 1110.27 ± 0.19 kg/m3 and 1112.77 ± 0.2 kg/m3 | 1106.04 ± 0.19 kg/m3 and 1108.53 ± 0.19 kg/m3 | 1101.38 ± 0.19 kg/m3 and 1103.81 ± 0.19 kg/m3 | 1594.2 ± 1.1 m/s and 1597.3 ± 1.1 m/s | 1616.3 ± 1.1 m/s and 1619.1 ± 1.1 m/s | 1632.4 ± 1.1 m/s and 1635 ± 1.1 m/s | 1643.2 ± 1.1 m/s and 1645.5 ± 1.1 m/s

C[C@H](N)C(=O)O [(S)-2-aminopropanoic acid] + O
mass density [kg/m3]
Conditions | m1 = 0.05014 | m1 = 0.15 | m1 = 0.2505 | m1 = 0.303 | m1 = 0.3456
288.15 K | 1000.65 ± 0.13 | 1003.65 ± 0.13 | 1006.52 ± 0.13 | 1007.97 ± 0.13 | 1009.14 ± 0.13
298.15 K | 998.59 ± 0.13 | 1001.56 ± 0.13 | 1004.42 ± 0.13 | 1005.85 ± 0.13 | 1006.98 ± 0.13
308.15 K | 995.554 ± 0.13 | 998.483 ± 0.13 | 1001.31 ± 0.13 | 1002.74 ± 0.13 | 1003.86 ± 0.13
318.15 K | 991.648 ± 0.13 | 994.399 ± 0.13 | 997.067 ± 0.13 | 998.365 ± 0.13 | 999.359 ± 0.13

NCC(=O)O [2-aminoacetic acid] + O
Conditions | mass density, m1 = 0.04978 [kg/m3] | mass density, m1 = 0.1472 [kg/m3] | mass density, m1 = 0.2507 [kg/m3] | mass density, m1 = 0.3018 [kg/m3] | mass density, m1 = 0.3521 [kg/m3] | speed of sound, m1 = 0.04978 [m/s] | speed of sound, m1 = 0.1472 [m/s] | speed of sound, m1 = 0.2507 [m/s] | speed of sound, m1 = 0.3018 [m/s] | speed of sound, m1 = 0.3521 [m/s]
288.15 K | 1000.74 ± 0.13 | 1003.87 ± 0.13 | 1007.09 ± 0.13 | 1008.62 ± 0.13 | 1010.01 ± 0.13 | 1484.9 ± 1 | 1490.1 ± 1 | 1495.3 ± 1 | 1497.7 ± 1 | 1500 ± 1
298.15 K | 998.674 ± 0.13 | 1001.73 ± 0.13 | 1004.79 ± 0.13 | 1006.26 ± 0.13 | 1007.54 ± 0.13 | 1499 ± 1 | 1503.6 ± 1 | 1508.3 ± 1 | 1510.3 ± 1 | 1512.3 ± 1
308.15 K | 995.639 ± 0.13 | 998.704 ± 0.13 | 1001.69 ± 0.13 | 1003 ± 0.13 | 1004.15 ± 0.13 | 1521.8 ± 1 | 1526 ± 1 | 1530.5 ± 1 | 1532.4 ± 1 | 1534.3 ± 1
318.15 K | 991.801 ± 0.13 | 994.854 ± 0.13 | 997.838 ± 0.13 | 999.157 ± 0.13 | 1000.43 ± 0.13 | 1538.6 ± 1 | 1542.8 ± 1 | 1547 ± 1 | 1549.3 ± 1 | 1550.9 ± 1
